Data on nine molecules can be found in ChEMBL document CHEMBL1201862, “PubChem BioAssay data set” (2004).

Some test systems named below: M14; SF-268; OVCAR-5; SK-OV-3; 786-0; SNB-19; MDA-MB-435; MOLT-4; CCRF-CEM; MCF7; NCI-H460; UACC-257; Hs-578T; SF-295; SK-MEL-28; CAKI-1; Malme-3M; OVCAR-4; RPMI-8226.
Common to all, as to test: NCI anticancer screen, dose series, 48 h

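Following 48 hours of exposure in 96-well plates, responses at five concentrations were used to interpolate endpoints linearly. GI50 = concentration required for 50% inhibition of growth.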 Activity calls are given as the source filed them. No stated cut-off is given here; in the data, active = GI50 up to about 1.1 µM and inactive = higher.

For `CCOC(=O)c1cc(=O)c2cccc3c2n1CCS3`, the GI50 with M14, with SF-268, with OVCAR-5, in the experiment on SK-OV-3, in the experiment on 786-0 and in the experiment on SNB-19 was > 100 µM (inactive) in each case. For the same molecule, the GI50 with MDA-MB-435 is > 100 µM (inactive); in the experiment with MOLT-4, > 100 µM (inactive); in the experiment on CCRF-CEM it was > 100 µM (inactive); in the experiment with MCF7, > 100 µM (inactive); with NCI-H460, 83.9 µM (inactive); in the experiment on UACC-257, > 100 µM (inactive). Further, the GI50 with Hs-578T, in the experiment on SF-295, in the experiment on SK-MEL-28 and in the experiment on CAKI-1 was > 100 µM (inactive) each time.

For the molecule `CSc1nc(NC2CC2)c2c(n1)Sc1nc3ccccc3n1N=C2`, the GI50 in the experiment with M14 is 39.5 µM (inactive); with SF-268, 17.1 µM (inactive); in the experiment with OVCAR-5, 37.2 µM (inactive); in the experiment on SK-OV-3 it was 26.5 µM (inactive); with 786-0, 6.08 µM (inactive); in the experiment on SNB-19 it was 34.4 µM (inactive). The GI50 in the experiment on MDA-MB-435 was 35.5 µM (inactive); in the experiment on MOLT-4, > 100 µM (inactive); with CCRF-CEM, > 100 µM (inactive); in the experiment on MCF7, 26.6 µM (inactive); in the experiment on NCI-H460, 25.1 µM (inactive); in the experiment on Malme-3M it was 16.7 µM (inactive). The GI50 is 41.3 µM (inactive) in the experiment with UACC-257; 0.9 µM (active) with Hs-578T; > 100 µM (inactive) in the experiment on SK-MEL-28; 34.9 µM (inactive) with CAKI-1; 16.7 µM (inactive) in the experiment with OVCAR-4.

Turning to `COc1ccc(-c2c(-c3ccc(OC)cc3)n3c(=O)n(C)c(=O)n23)cc1`, the GI50 was > 100 µM (inactive) with M14; 50.5 µM (inactive) with SK-OV-3; > 100 µM (inactive) in the experiment on 786-0; 17.1 µM (inactive) with SNB-19; > 100 µM (inactive) with MDA-MB-435; > 100 µM (inactive) in the experiment with MOLT-4. The GI50 in the experiment on CCRF-CEM is 59.4 µM (inactive); with MCF7, > 100 µM (inactive); in the experiment with Malme-3M, 91.6 µM (inactive); in the experiment with UACC-257 it was 50.5 µM (inactive); in the experiment on SF-295, > 100 µM (inactive); in the experiment with RPMI-8226 it was 76.4 µM (inactive). Besides, the results for the GI50 with SK-MEL-28, in the experiment with CAKI-1 and in the experiment on OVCAR-4 were > 100 µM (inactive), > 100 µM (inactive) and 23.3 µM (inactive), respectively.

For `O=C(NNC(=O)c1csc(NC(=S)NC2CCCCC2)n1)c1ccccc1`, the GI50 in the experiment with M14 is 13.5 µM (inactive); in the experiment with SF-268, 5.66 µM (inactive); with OVCAR-5, 11.9 µM (inactive); in the experiment on SK-OV-3, 12.1 µM (inactive); with 786-0 it was 12.7 µM (inactive); with MDA-MB-435, 15.6 µM (inactive). In addition, the GI50 with MOLT-4 is 4.2 µM (inactive); with CCRF-CEM, 3.61 µM (inactive); in the experiment on MCF7, 2.06 µM (inactive); in the experiment with Malme-3M, 15.5 µM (inactive); with UACC-257 it was 7.96 µM (inactive); in the experiment with SF-295, 11 µM (inactive). Moreover, the GI50 was 10 µM (inactive) in the experiment on RPMI-8226, 18.6 µM (inactive) in the experiment on CAKI-1 and 3.34 µM (inactive) in the experiment with OVCAR-4.

With `COCO[C@@H]1C[C@H]2C(=O)Nc3ccccc3C(=O)N2C1`, the GI50 in the experiment with M14 was > 100 µM (inactive); in the experiment with SF-268, 36.4 µM (inactive); with OVCAR-5, 61.5 µM (inactive); in the experiment with SK-OV-3, > 100 µM (inactive); in the experiment with 786-0 it was > 100 µM (inactive); in the experiment on SNB-19, 77.4 µM (inactive). The GI50 in the experiment on MDA-MB-435 was 53.7 µM (inactive); in the experiment on MCF7, 54.1 µM (inactive); with Malme-3M, 40.3 µM (inactive); in the experiment with UACC-257 it was > 100 µM (inactive); in the experiment on Hs-578T it was 58.6 µM (inactive); with SF-295 it was 30.8 µM (inactive). The GI50 with SK-MEL-28 was > 100 µM (inactive); in the experiment on CAKI-1 it was 36 µM (inactive); in the experiment on OVCAR-4 it was > 100 µM (inactive).

For the molecule `CCCCCCCCCCCCCCCCOP(=O)([O-])OCC[N+](C)(C)C1CC(C)(C)N(O)C(C)(C)C1`, the GI50 with M14, in the experiment with SF-268, with OVCAR-5, in the experiment with SK-OV-3, in the experiment on 786-0 and in the experiment on SNB-19 was > 100 µM (inactive) in each case. The GI50 with MDA-MB-435, in the experiment with MCF7, in the experiment with NCI-H460, in the experiment with Malme-3M, in the experiment with UACC-257 and in the experiment with Hs-578T was > 100 µM (inactive) throughout. In addition, the GI50 in the experiment with SF-295, in the experiment with CAKI-1 and with OVCAR-4 was > 100 µM (inactive) each time.

On to `COc1ccccc1Cn1nc(OC)c2cc([N+](=O)[O-])ccc21`, for which the GI50 is > 100 µM (inactive) with M14; 13.1 µM (inactive) in the experiment with SF-268; > 100 µM (inactive) with OVCAR-5; 11.6 µM (inactive) with 786-0; 11.1 µM (inactive) in the experiment on SNB-19; > 71 µM (inactive) in the experiment with MDA-MB-435. The GI50 is > 100 µM (inactive) in the experiment with MOLT-4; > 100 µM (inactive) in the experiment with CCRF-CEM; 45.8 µM (inactive) in the experiment on MCF7; 66.7 µM (inactive) with NCI-H460; > 87.5 µM (inactive) in the experiment on Malme-3M; > 74 µM (inactive) with UACC-257. Moreover, the GI50 in the experiment with Hs-578T was 3.61 µM (inactive); with SF-295, 6.3 µM (inactive); in the experiment with SK-MEL-28, > 91 µM (inactive); in the experiment on CAKI-1 it was 15 µM (inactive); with OVCAR-4, 13.4 µM (inactive).

Consider `Cc1ccc(-[n+]2cc([O-])on2)cc1`, for which the GI50 with M14, with SF-268, in the experiment on OVCAR-5, in the experiment on 786-0, with SNB-19 and in the experiment with MDA-MB-435 was > 100 µM (inactive) throughout. Moreover, the GI50 with MOLT-4, in the experiment on CCRF-CEM, in the experiment with NCI-H460, in the experiment with Malme-3M, in the experiment with UACC-257 and with Hs-578T was > 100 µM (inactive) in each case. Besides, the GI50 in the experiment on SF-295, with RPMI-8226, with SK-MEL-28, in the experiment with CAKI-1 and with OVCAR-4 was > 100 µM (inactive) throughout.

Regarding `Cc1ccc(S(=O)(=O)N/N=C2/C(=O)Nc3c(Cl)cc(Cl)cc32)cc1`, the GI50 in the experiment on M14 was 73.5 µM (inactive); in the experiment on OVCAR-5 it was > 100 µM (inactive); with SK-OV-3, > 100 µM (inactive); in the experiment with 786-0 it was > 100 µM (inactive); with SNB-19, > 100 µM (inactive); in the experiment with MDA-MB-435, 51.6 µM (inactive). The GI50 in the experiment with MOLT-4 was 38.5 µM (inactive); in the experiment with CCRF-CEM, 55.6 µM (inactive); with MCF7, 75 µM (inactive); in the experiment on NCI-H460 it was 44.2 µM (inactive); in the experiment on Malme-3M, 91.4 µM (inactive); in the experiment with UACC-257, > 100 µM (inactive). In addition, the GI50 in the experiment on Hs-578T is 76.6 µM (inactive); in the experiment with SF-295 it was 35.8 µM (inactive); in the experiment on SK-MEL-28, > 100 µM (inactive); in the experiment on CAKI-1, 59.4 µM (inactive); with OVCAR-4, > 100 µM (inactive).
